Consider 3 molecules from patent US9295258B2, “Synergistic pesticidal compositions and related methods” (DOW AGROSCIENCES LLC, priority 2013, dated 2016).

Each structure is given as a SMILES string.

Test [1] has as its system Cotton Aphid, Aphis gossypii (Glover). Briefly: Cotton aphid percent control on treated cotton plants (track sprayer), synergy by Colby's equation. It is filed as in vivo. The settings on record: cotton plants at cotyledon stage. The text has this: (§1) The method described in Colby S. R., “Calculating Synergistic and Antagonistic Responses of Herbicide Combinations,” Weeds, 1967, 15, 20-22 was used to determine an existence of synergic effect between the ecdysone receptor agonist compound and the pesticide in the formulated pesticidal composition. In this method, the percent insect control of the formulated pesticidal composition as observed in the study was compared to the “expected” percent control (E) as calculated by equation (1) (hereinafter “Colby's equation”) below: […]
(§2) X is the percentage of control with the first pesticide at a given rate (p),
(§3) Y is the percentage of control with the second pesticide at a given rate (q), and
E is the expected control by the first and second pesticide at a rate of p+q. […]
Cotton plants at cotyledon stage were treated with different active compounds using track sprayer. […] The percent control of the pesticidal composition against cotton aphid, Aphis gossypii (Glover), was determined as the “Observed” action, and compared to those obtained by using about 0.002 weight % of compound II, and using about 0.005 weight % of methoxyfenozide alone. The “Colby's Expected Action” was calculated using Colby's equation as discussed previously.

For test [2], the system named is Diamondback Moth, Plutella xylostella. In words: Diamondback moth percent control on treated cabbage leaf discs (track sprayer), synergy by Colby's equation. It is filed as in vivo.
Excerpt: as §1, §2, §3
E is the expected control by the first and second pesticide at a rate of p+q.
Bioassays were performed for different active compounds. […] The “Colby's Expected Action” was calculated using Colby's equation as discussed previously.
(§4) Bioassays were performed for different active compounds. […] The “Colby's Expected Action” was calculated using Colby's equation as discussed previously. […]
as §4

As for `CCN(C(=O)CC[S+]([O-])CCC(F)(F)F)c1cn(-c2cccnc2)nc1Cl` (stereo not shown) [Compound II, N-(3-chloro-1-(pyridin-3-yl)-1H-pyrazol-4-yl)-N-ethyl-3-((3,3,3-trifluoropropyl)sulfinyl)propanamide], in test [1] (Compound II alone, dose rate 0.002 weight %), the “% Control Three Days After Treatment” value came to 28%.

For `CCN(C(=O)CCSCCC(F)(F)F)c1cn(-c2cccnc2)nc1Cl` [Compound I, N-(3-chloro-1-(pyridin-3-yl)-1H-pyrazol-4-yl)-N-ethyl-3-((3,3,3-trifluoropropyl)thio)propanamide], in test [2] (Compound I alone (1:0), average of 0.0025, 0.000625 and 0.0001531 weight %), the “Average % Control Five Days After Treatment” value came out at 7.58%.

As to `COc1cccc(C(=O)NN(C(=O)c2cc(C)cc(C)c2)C(C)(C)C)c1C` [Methoxyfenozide, 3-methoxy-2-methylbenzoic acid 2-(3,5-dimethylbenzoyl)-2-(1,1-dimethylethyl)hydrazide], in test [1] (Methoxyfenozide alone, dose rate 0.005 weight %), the “% Control Three Days After Treatment” value is listed as 23%. Besides, the “Average % Control Five Days After Treatment” value in test [2] (Methoxyfenozide alone (0:1), average of 0.02, 0.005, 0.00125 and 0.0003125 weight %) came out at 15.9%.
